Measurements: PubChem BioAssay (NCI)
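Abbreviation: GI50, concentration required for 50% inhibition of growth. TGI: concentration producing complete growth inhibition.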

Key:
Assay in all cases: NCI tumour cell line growth inhibition, 384-well format
[1] = system: T-47D breast
[2] = system: SK-MEL-28 melanoma
[3] = system: A549 NSCLC
[4] = system: SF-268 CNS
[5] = system: TK-10 renal
[6] = system: RXF 393 renal
[7] = system: MCF7 breast
[8] = system: MDA-MB-468 breast
[9] = system: A498 renal
[10] = system: COLO 205 colon
[11] = system: U251 glioblastoma
[12] = system: UACC-257 melanoma
[13] = system: SR leukemia
[14] = system: OVCAR-3 ovarian
[15] = system: HOP-62 NSCLC
[16] = system: OVCAR-5 ovarian
[17] = system: NCI-H460 NSCLC
[18] = system: NCI-H522 lung
[19] = system: MDA-MB-231 breast
[20] = system: SF-539 CNS
[21] = system: MDA-MB-435 melanoma
[22] = system: HCT-116 colon
[23] = system: BT-549 breast
[24] = system: HCC-2998 colon
[25] = system: OVCAR-8 ovarian
[26] = system: RPMI-8226 leukemia
[27] = system: KM12 colon
[28] = system: UACC-62 melanoma
[29] = system: HL-60(TB) leukemia
[30] = system: SF-295 CNS
[31] = system: NCI/ADR-RES ovarian
[32] = system: SW-620 colon
[33] = system: CCRF-CEM leukemia
[34] = system: HCT-15 colon
[35] = system: IGROV1 ovarian
[36] = system: SNB-19 CNS
[37] = system: M14 melanoma
[38] = system: ACHN renal
[39] = system: SK-MEL-5 melanoma
[40] = system: MOLT-4 leukemia
[41] = system: OVCAR-4 ovarian
[42] = system: NCI-H322M lung
[43] = system: LOX IMVI melanoma
[44] = system: MALME-3M melanoma
[45] = system: DU-145 prostate
[46] = system: NCI-H226 lung
[47] = system: SK-OV-3 ovarian
[48] = system: K-562 leukemia
[49] = system: HOP-92 NSCLC
[50] = system: PC-3 prostate
[51] = system: HT29 colon
[52] = system: CAKI-1 renal
[53] = system: 786-0 renal
[54] = system: NCI-H23 lung
[55] = system: SK-MEL-2 melanoma
[56] = system: SN12C renal
[57] = system: HS 578T breast
[58] = system: EKVX NSCLC
[59] = system: SNB-75 CNS

## Cc1c(CN2CCC(Nc3ncnc4sc(CC(F)(F)F)cc34)CC2)ccc2c1cc(C#N)n2Cc1cn[nH]c1
[1]
  GI50: 247 nM
  TGI: 1440 nM
[2]
  GI50: 1850 nM
  TGI: 3.26 µM
[3]
  GI50: 1350 nM
  TGI: 2670 nM
[4]
  GI50: 1.31 µM
  TGI: 2590 nM
[5]
  GI50: 1330 nM
  TGI: 2620 nM
[6]
  GI50: 219 nM
  TGI: 709 nM
[7]
  GI50: 1020 nM
  TGI: 2190 nM
[8]
  GI50: 327 nM
  TGI: 1130 nM
[9]
  GI50: 1150 nM
  TGI: 2370 nM
[10]
  GI50: 1420 nM
  TGI: 2740 nM
[11]
  GI50: 730 nM
  TGI: 2000 nM
[12]
  GI50: 772 nM
  TGI: 2060 nM
[13]
  GI50: 137 nM
  TGI: 279 nM
[14]
  GI50: 1230 nM
  TGI: 2480 nM
[15]
  GI50: 1160 nM
  TGI: 2390 nM
[16]
  GI50: 1.73 µM
  TGI: 3.12 µM
[17]
  GI50: 409 nM
  TGI: 1630 nM
[18]
  GI50: 1390 nM
  TGI: 2680 nM
[19]
  GI50: 1.36 µM
  TGI: 2650 nM
[20]
  GI50: 1330 nM
  TGI: 2620 nM
[21]
  GI50: 1860 nM
  TGI: 3.27 µM
[22]
  GI50: 417 nM
  TGI: 1610 nM
[23]
  GI50: 901 nM
  TGI: 2120 nM
[24]
  GI50: 391 nM
  TGI: 1350 nM
[25]
  GI50: 1500 nM
  TGI: 2840 nM
[26]
  GI50: 107 nM
  TGI: 770 nM
[27]
  GI50: 1280 nM
  TGI: 2560 nM
[28]
  GI50: 1650 nM
  TGI: 3.02 µM
[29]
  GI50: 627 nM
  TGI: 1680 nM
[30]
  GI50: 1420 nM
  TGI: 2730 nM
[31]
  GI50: 1580 nM
  TGI: 2940 nM
[32]
  GI50: 1310 nM
  TGI: 2600 nM
[33]
  GI50: 668 nM
  TGI: 1960 nM
[34]
  GI50: 1230 nM
  TGI: 2490 nM
[35]
  GI50: 1350 nM
  TGI: 3.4 µM
[36]
  GI50: 1670 nM
  TGI: 3.04 µM
[37]
  GI50: 1620 nM
  TGI: 2980 nM
[38]
  GI50: 1390 nM
  TGI: 2690 nM
[39]
  GI50: 402 nM
  TGI: 1540 nM
[40]
  GI50: 486 nM
  TGI: 1690 nM
[41]
  GI50: 930 nM
  TGI: 2140 nM
[42]
  GI50: 954 nM
  TGI: 2150 nM
[43]
  GI50: 2060 nM
  TGI: 3.49 µM
[44]
  GI50: 1360 nM
  TGI: 2650 nM
[45]
  GI50: 1700 nM
  TGI: 3.09 µM
[46]
  GI50: 1300 nM
  TGI: 2610 nM
[47]
  GI50: 1330 nM
  TGI: 2610 nM
[48]
  GI50: 295 nM
  TGI: 1110 nM
[49]
  GI50: 1330 nM
  TGI: 2610 nM
[50]
  GI50: 1300 nM
  TGI: 2580 nM
[51]
  GI50: 318 nM
  TGI: 1270 nM
[52]
  GI50: 1420 nM
  TGI: 2730 nM
[53]
  GI50: 1160 nM
  TGI: 2390 nM
[54]
  GI50: 275 nM
  TGI: 1420 nM
[55]
  GI50: 1330 nM
  TGI: 2600 nM
[56]
  GI50: 1300 nM
  TGI: 2580 nM

## C[C@@H]1CCN(C(=O)CC#N)C[C@@H]1N(C)c1ncnc2[nH]ccc12
[1]
  GI50: > 100000 nM
  TGI: > 100000 nM
[2]
  GI50: > 100000 nM
  TGI: > 100 µM
[3]
  GI50: > 100000 nM
  TGI: > 100000 nM
[4]
  GI50: 99.8 µM
  TGI: > 100000 nM
[5]
  GI50: > 71400 nM
  TGI: > 100000 nM
[6]
  GI50: > 80400 nM
  TGI: > 100000 nM
[57]
  GI50: > 100 µM
  TGI: > 100 µM
[58]
  GI50: > 100 µM
  TGI: > 100 µM
[7]
  GI50: > 100000 nM
  TGI: > 100000 nM
[8]
  GI50: > 100000 nM
  TGI: > 100000 nM
[9]
  GI50: > 100000 nM
  TGI: > 100000 nM
[10]
  GI50: > 100000 nM
  TGI: > 100000 nM
[11]
  GI50: > 100000 nM
  TGI: > 100000 nM
[12]
  GI50: > 100000 nM
  TGI: > 100000 nM
[13]
  GI50: > 100000 nM
  TGI: > 100000 nM
[14]
  GI50: > 100000 nM
  TGI: > 100000 nM
[15]
  GI50: > 100000 nM
  TGI: > 100000 nM
[16]
  GI50: 62 µM
  TGI: > 100 µM
[17]
  GI50: > 100000 nM
  TGI: > 100000 nM
[18]
  GI50: > 83700 nM
  TGI: > 100000 nM
[19]
  GI50: 62.5 µM
  TGI: > 100000 nM
[20]
  GI50: > 100000 nM
  TGI: > 100000 nM
[21]
  GI50: > 100000 nM
  TGI: > 100 µM
[22]
  GI50: > 100000 nM
  TGI: > 100000 nM
[23]
  GI50: > 100000 nM
  TGI: > 100000 nM
[24]
  GI50: > 100000 nM
  TGI: > 100000 nM
[25]
  GI50: > 100000 nM
  TGI: > 100000 nM
[26]
  GI50: > 100000 nM
  TGI: > 100000 nM
[27]
  GI50: > 100000 nM
  TGI: > 100000 nM
[28]
  GI50: > 100000 nM
  TGI: > 100 µM
[29]
  GI50: > 100000 nM
  TGI: > 100000 nM
[30]
  GI50: > 100000 nM
  TGI: > 100000 nM
[31]
  GI50: > 100000 nM
  TGI: > 100000 nM
[32]
  GI50: > 100000 nM
  TGI: > 100000 nM
[33]
  GI50: > 100000 nM
  TGI: > 100000 nM
[34]
  GI50: > 100000 nM
  TGI: > 100000 nM
[35]
  GI50: > 79900 nM
  TGI: > 100 µM
[36]
  GI50: > 100000 nM
  TGI: > 100 µM
[37]
  GI50: > 100000 nM
  TGI: > 100000 nM
[38]
  GI50: > 100000 nM
  TGI: > 100000 nM
[39]
  GI50: > 100000 nM
  TGI: > 100000 nM
[40]
  GI50: > 100000 nM
  TGI: > 100000 nM
[41]
  GI50: > 100000 nM
  TGI: > 100000 nM
[42]
  GI50: > 100000 nM
  TGI: > 100000 nM
[43]
  GI50: > 100000 nM
  TGI: > 100 µM
[44]
  GI50: > 100000 nM
  TGI: > 100000 nM
[45]
  GI50: > 100000 nM
  TGI: > 100 µM
[59]
  GI50: 61.5 µM
  TGI: > 100 µM
[46]
  GI50: > 42600 nM
  TGI: > 85500 nM
[47]
  GI50: > 58000 nM
  TGI: > 100000 nM
[48]
  GI50: > 100000 nM
  TGI: > 100000 nM
[49]
  GI50: > 100000 nM
  TGI: > 100000 nM
[50]
  GI50: > 100000 nM
  TGI: > 100000 nM
[51]
  GI50: > 100000 nM
  TGI: > 100000 nM
[52]
  GI50: > 100000 nM
  TGI: > 100000 nM
[53]
  GI50: > 100000 nM
  TGI: > 100000 nM
[54]
  GI50: > 100000 nM
  TGI: > 100000 nM
[55]
  GI50: > 100000 nM
  TGI: > 100000 nM
[56]
  GI50: > 94000 nM
  TGI: > 100000 nM
